From patent US9345905B2, “Heterocyclic amides compounds which are HDAC6 inhibitors and used as anti-tumoral agents” (Nanjing Allgen Pharma Co. Ltd., priority 2011, dated 2016)
Where two headings read alike, the source gives them in different places.

Molecular target: T1, human HDAC6 (Homo sapiens, UniProt Q9UBN7)
T1 construct: Reaction Biology Corporation
T1 sequence (Q9UBN7 1-1215): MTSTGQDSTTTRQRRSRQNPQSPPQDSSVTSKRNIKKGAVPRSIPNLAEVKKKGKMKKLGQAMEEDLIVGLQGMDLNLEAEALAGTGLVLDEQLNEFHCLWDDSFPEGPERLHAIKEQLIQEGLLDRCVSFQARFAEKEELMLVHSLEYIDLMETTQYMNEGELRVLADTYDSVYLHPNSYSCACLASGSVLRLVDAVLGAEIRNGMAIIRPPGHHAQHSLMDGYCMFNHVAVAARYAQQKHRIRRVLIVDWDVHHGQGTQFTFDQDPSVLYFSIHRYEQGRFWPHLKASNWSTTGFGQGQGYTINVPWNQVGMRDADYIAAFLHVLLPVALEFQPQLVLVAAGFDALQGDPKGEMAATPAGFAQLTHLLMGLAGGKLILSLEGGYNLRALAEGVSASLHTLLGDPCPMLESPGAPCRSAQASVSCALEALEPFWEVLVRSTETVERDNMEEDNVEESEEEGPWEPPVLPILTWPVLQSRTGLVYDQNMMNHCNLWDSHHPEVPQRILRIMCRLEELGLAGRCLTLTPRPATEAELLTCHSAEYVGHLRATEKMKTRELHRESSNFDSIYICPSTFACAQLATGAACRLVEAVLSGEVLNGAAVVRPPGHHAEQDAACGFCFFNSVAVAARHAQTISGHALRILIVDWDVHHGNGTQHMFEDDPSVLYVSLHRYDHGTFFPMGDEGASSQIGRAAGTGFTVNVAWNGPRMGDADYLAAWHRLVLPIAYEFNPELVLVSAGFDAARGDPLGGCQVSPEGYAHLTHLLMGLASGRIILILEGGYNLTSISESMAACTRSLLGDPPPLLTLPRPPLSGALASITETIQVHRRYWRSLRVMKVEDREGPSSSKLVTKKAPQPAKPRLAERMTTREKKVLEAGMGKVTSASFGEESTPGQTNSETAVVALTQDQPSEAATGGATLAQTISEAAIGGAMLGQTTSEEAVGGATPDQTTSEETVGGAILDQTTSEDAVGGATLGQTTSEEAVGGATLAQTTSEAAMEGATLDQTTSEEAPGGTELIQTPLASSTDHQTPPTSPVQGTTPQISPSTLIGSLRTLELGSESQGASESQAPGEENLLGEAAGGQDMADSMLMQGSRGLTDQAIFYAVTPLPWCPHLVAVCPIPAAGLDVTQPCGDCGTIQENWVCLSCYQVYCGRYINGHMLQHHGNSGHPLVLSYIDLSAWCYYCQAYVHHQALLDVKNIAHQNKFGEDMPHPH
Assay: HDAC6 inhibition, fluorogenic peptide substrate (Reaction Biology Corporation)
Format: biochemical
Procedure: The compounds of the present invention were tested for inhibition of human HDAC6 at Reaction Biology Corporation by using 50 μM Fluorogenic peptide from p53 residues 379-382 (RHKKAc) as the substrate.

[1] = 50 μM fluorogenic peptide from p53 residues 379-382 (RHKKAc) as substrate, read-out: IC50, HDAC6 inhibition

Row | SMILES | IC50 [1] [nM] | IC50 [nM]
1 | CN1CCc2c(Sc3ccc(C(=O)NO)cc3)c3ccccc3n2C1 [Example 1, N-Hydroxy-4-((2-methyl-1,2,3,4-tetrahydropyrimido[1,6-a]indol-5-yl)thio)benzamide] | 2.48 | 
2 | Cc1ccc2c(c1)c(Sc1ccc(C(=O)NO)cc1)c1n2CN(C)CC1 [Example 2, 4-((2,7-Dimethyl-1,2,3,4-tetrahydropyrimido[1,6-a]indol-5-yl)thio)-N-hydroxybenzamide] | 35.5 | 
3 | CN1CCn2c(c(Sc3ccc(C(=O)NO)cc3)c3ccccc32)C1=O [Example 5, N-hydroxy-4-((2-methyl-1-oxo-1,2,3,4-tetrahydropyrazino[1,2-a]indol-10-yl)thio)benzamide] | 1.76 | 
4 | CN1CCc2c(C(=O)c3ccc(C(=O)NO)cc3)c3ccccc3n2C1 [Example 4, N-hydroxy-4-(2-methyl-1,2,3,4-tetrahydropyrimido[1,6-a]indole-5-carbonyl)benzamide] |  | 1490
5 | CN1CCc2c(Cc3ccc(C(=O)NO)cc3)c3ccccc3n2C1 [Example 3, N-hydroxy-4-((2-methyl-1,2,3,4-tetrahydropyrimido[1,6-a]indol-5-yl)methyl)benzamide] | 10.7 | 
